In US11286271B2, “Iridium (III) complexes containing N-heterocyclic carbene ligand, synthesis, and their use thereof in cancer treatment” (The University of Hong Kong, priority 2018, dated 2022):

Tests used:
[1] = tested on: NCI-H460 lung cancer cells; experiment: Cellular ROS generation by DCF fluorescence (H2DCF-DA probe); format: cell-based, human; settings: 1 μM, 2 h, visible light irradiation
Procedure: (A) Generation of ROS examined by DCF fluorescence measurement in NCI-H460 cells treated with or without iridium(III) porphyrin complexes (1 μM) for 2 h with or without irradiation by visible light.
To examine the relationship between photocytotoxicity and the photosensitizing properties of the complexes, we measured the cellular reactive oxygen species (ROS) generation using the ROS probe H2DCF-DA after treatment of cancer cells with the iridium(III) porphyrin complexes.

NCI-H460 cells [2] = experiment: Cell cycle progression by flow cytometry; format: cell-based, human; settings: 0.1 μM
Source text: (§1) FIGS. 8A-8C. […] (A) Apoptosis/necrosis in NCI-H460 cells as examined by flow cytometry of annexin-V-FITC/propidium iodide-stained cells. (B) Cell cycle progression in NCI-H460 cells as examined by flow cytometry. (C) Inhibition of angiogenesis of MS-1 endothelial cells.
(§2) The other two groups of mice received the same treatment without irradiation as a control.

[3] = tested on: NCI-H460 lung cancer xenografts; settings: 3.0 mg/kg intratumoral
Source text: FIGS. 9A-9D. […] (A) Tumor volume. (B) Body weight of mice. (C) Tumor weight after the experiment. […] (D) Photo of tumors of each group after treatment for 15 days. Data are expressed as the mean±standard error; **p<0.01.
as §2

NCI-H460 cells [4] = experiment: Subcellular localization by confocal microscopy imaging; settings: 1 μM, 2 h, NCI-H460, ER-Tracker green
MS-1 endothelial cells = experiment: Inhibition of endothelial cell tube formation (angiogenesis); format: cell-based; settings: 0.1 μM
Source text: as §1, §2

[5] = Singlet oxygen generation quantum yield from 1O2 emission; format: physicochemical; settings: oxygen-saturated CHCl3, referenced to H2tpp
NCI-H460 cells [6] = experiment: Apoptosis by annexin-V-FITC/propidium iodide flow cytometry; format: cell-based, human; settings: 0.1 μM
Source text: as §1, §2

[7] = tested on: NCI-H460 human non-small cell lung cancer xenografts; experiment: In vivo antitumor activity, intravenous injection, NCI-H460 xenograft; settings: 3 mg/kg intravenous thrice weekly, 16-day treatment
Procedure: (A) Tumor volume and (B) body weight of mice. Data are expressed as the mean±standard error; *p<0.05.
Nude mice bearing NCI-H460 human non-small cell lung cancer xenografts were administered 102 (3 mg/kg) via intravenous injection thrice weekly.

[8] = tested on: peptide ([…]) from thioredoxin (Trx); experiment: Photoinduced oxidation of Trx model peptide by ESI-MS/MS; format: biochemical; settings: peptide 20 μM, complex 10 μM, light irradiation 1 h
Source text: A peptide ([sequence]) from thioredoxin (Trx) was employed as a model to investigate the possible oxidative modification sites by electrospray ionization tandem mass spectrometry (ESI-MS/MS).

[9] = tested on: NCI-H460 lung cancer cells; experiment: Cytotoxicity and photocytotoxicity, MTT assay, NCI-H460 in dark or under visible light; format: cell-based, human; settings: for PI = IC50(dark)/IC50(light): NCI-H460, phototoxicity index
Procedure: FIG. 12A-12G. Plots of cell viability of NCI-H460 lung cancer cells upon 72 h treatment with the iridium(III) porphyrin complexes and cis-platin in dark or under light irradiation (2.8 mW cm^−2 for 1 h).
NCI-H460 lung cancer cells incubated with the complexes were exposed to a low dose of visible light irradiation (2.8 mW cm^−2) for 1 h. […] The cytotoxicity of [Ir^III(oep)Cl(CO)] was also evaluated for comparison.

[10] = Lipophilicity, n-octanol / saline partition; format: physicochemical; settings: n-octanol / saline solution (0.9% w/v), by amount of iridium
HepG2 = experiment: In vitro cytotoxicity, MTT assay, HepG2; format: cell-based, human; settings: 72 h incubation
[11] = tested on: panel of human cancer cell lines; experiment: Cytotoxicity towards a panel of human cancer cell lines; settings: summary of Table 2
MCF-7 = experiment: In vitro cytotoxicity, MTT assay, MCF-7; format: cell-based, human; settings: 72 h incubation
[12] = in CHCl3, reference standard; cited from earlier work

[Ir^III(oep)(IMe)2](OTf) [Complex 102]
Elevation in ROS levels [1]: 10 fold | G0/G1-population (NCI-H460 cells [2]; dark (increase from 59.6%)): 66.3% | sub-G1 population, visible light irradiation (NCI-H460 cells [2]; visible light irradiation): 96.9% | sub-G1 population, before irradiation (NCI-H460 cells [2]; without light): 2.2% | Tumor weight, photoirradiation group vs dark control group ([3]; after 15 days): much lower | Changes in body weight ([3]; with or without irradiation, 15 days): negligible changes in body weight | Pearson's correlation coefficient (R) with ER-Tracker (NCI-H460 cells [4]): 0.903 | MS-1 cell tube formation, dark (MS-1 endothelial cells; dark): moderate inhibition | MS-1 cell tube formation, light irradiation (MS-1 endothelial cells; light irradiation): completely abrogated | Quantum yield of singlet oxygen generation (Φso) [5]: 0.88 | Proportion of cells undergoing apoptotic cell death, without irradiation (NCI-H460 cells [6]; dark): 5.9% | Proportion of cells undergoing apoptotic cell death, light irradiation (NCI-H460 cells [6]; visible light irradiation): 81.7% | Toxicity incl. body weight loss and death [7]: without apparent toxicity | Tumor size reduction [7]: 41% | Oxidative modification of Trx peptide [8]: undergo oxidative modifications

[Ir^III(ttp)(IMe)2](ORf) [Complex 101]
Quantum yield of singlet oxygen generation (Φso) [5]: 0.64

[Ir^III(oep)(I^iPr)2](PF6) [Complex 103]
IC50 upon light irradiation, in words ([9]; NCI-H460, visible light 2.8 mW cm^−2, 1 h): nanomolar

N.N.[Cl][Pt][Cl] [Cisplatin]
PI = IC50(dark)/IC50(light) [9]: 0.72 | PI = IC50(dark)/IC50(light) ([9]; listed as cisplatin): < 1

[Ir^III(oep)Cl(CO)]
PI = IC50(dark)/IC50(light) [9]: >2.5 | IC50 ([9]; dark, MTT assay, 72 h): > 50 µM | Log P [10]: 2.38

CCC1=C(CC)C2=NC1=Cc1c(CC)c(CC)c3[n]1[Ir+][n]1c(c(CC)c(CC)c1=CC1=NC(=C3)C(CC)=C1CC)=C2.F[B-](F)(F)F.[C-]#[N+]c1ccc(OC)cc1.[C-]#[N+]c1ccc(OC)cc1 [[Ir^III(ope)(CNPhOMe)2](BF4)]
IC50 (HepG2): > 100 µM | Cytotoxicity / IC50 in words, panel of human cancer cell lines [11]: reduced cytotoxicity | PI = IC50(dark)/IC50(light) [9]: 24.2 | Log P [10]: 2.81 | IC50 (MCF-7): > 100 µM

C1=Cc2nc1c(-c1ccccc1)c1ccc([nH]1)c(-c1ccccc1)c1nc(c(-c3ccccc3)c3ccc([nH]3)c2-c2ccccc2)C=C1 [Complex H2tpp, H2tpp]
Quantum yield of singlet oxygen generation (Φso), reference [12]: 0.55
